Consider four compounds from patent US20080026996A1, “Selective Vpac2 Receptor Reptide Agonists” (ELI LILLY AND COMPANY, priority 2004, published 2008).

In data set [1] the target is T1, human VPAC2 (Homo sapiens, UniProt P41587).
T1 construct: expressed in transfected cells
T1 sequence (P41587 24-438): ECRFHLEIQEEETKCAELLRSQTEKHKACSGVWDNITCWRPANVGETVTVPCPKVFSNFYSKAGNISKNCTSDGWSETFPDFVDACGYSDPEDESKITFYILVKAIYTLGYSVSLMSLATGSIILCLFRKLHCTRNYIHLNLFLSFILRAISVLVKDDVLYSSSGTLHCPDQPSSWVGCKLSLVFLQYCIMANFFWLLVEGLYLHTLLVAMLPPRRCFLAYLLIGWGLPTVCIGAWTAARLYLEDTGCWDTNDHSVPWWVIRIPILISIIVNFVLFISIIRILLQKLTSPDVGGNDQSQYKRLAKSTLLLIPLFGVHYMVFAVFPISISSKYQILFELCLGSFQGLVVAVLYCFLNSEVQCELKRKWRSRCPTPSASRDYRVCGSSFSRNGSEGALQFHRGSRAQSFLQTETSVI
Kind of data set: Filter binding assay, membranes of stable VPAC2 cell line, 125I-labeled VIP tracer (Table 2). Particulars: read-out: Human VPAC2 Receptor Binding. In outline:
(§1)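 Radioligand displacement was measured with 2.5 μg membrane protein per well and roughly 40000 cpm of iodinated tracer. After a 1-hour incubation, bound and free label were separated on BSA-blocked glass-fibre filters and quantified by scintillation.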

The target of data set [2] is T2, human PAC1 (Homo sapiens, UniProt P41586).
T2 sequence (P41586 21-468): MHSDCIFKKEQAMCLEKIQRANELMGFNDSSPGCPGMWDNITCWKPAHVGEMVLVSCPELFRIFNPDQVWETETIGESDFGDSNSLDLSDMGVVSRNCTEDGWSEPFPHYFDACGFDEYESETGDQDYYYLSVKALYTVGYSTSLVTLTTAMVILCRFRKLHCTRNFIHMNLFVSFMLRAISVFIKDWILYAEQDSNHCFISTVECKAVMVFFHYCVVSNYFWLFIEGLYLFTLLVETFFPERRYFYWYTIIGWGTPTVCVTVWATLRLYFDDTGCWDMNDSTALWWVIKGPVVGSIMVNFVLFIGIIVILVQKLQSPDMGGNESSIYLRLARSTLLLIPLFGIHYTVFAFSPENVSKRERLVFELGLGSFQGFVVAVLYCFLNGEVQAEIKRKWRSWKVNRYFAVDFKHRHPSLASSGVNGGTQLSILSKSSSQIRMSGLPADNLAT
Kind of data set: Filter binding assay, membranes of cells transiently transfected with human PAC1, 125I-labeled PACAP-27 tracer (Table 2). The arrangement: expressed in transfected cells. Particulars: read-out: Human PAC1 Receptor Binding. The gist of the method:
as §1

The target of data set [3] is T3, rat VPAC2 receptor (Rattus norvegicus, UniProt P35000).
T3 sequence (P35000 23-437): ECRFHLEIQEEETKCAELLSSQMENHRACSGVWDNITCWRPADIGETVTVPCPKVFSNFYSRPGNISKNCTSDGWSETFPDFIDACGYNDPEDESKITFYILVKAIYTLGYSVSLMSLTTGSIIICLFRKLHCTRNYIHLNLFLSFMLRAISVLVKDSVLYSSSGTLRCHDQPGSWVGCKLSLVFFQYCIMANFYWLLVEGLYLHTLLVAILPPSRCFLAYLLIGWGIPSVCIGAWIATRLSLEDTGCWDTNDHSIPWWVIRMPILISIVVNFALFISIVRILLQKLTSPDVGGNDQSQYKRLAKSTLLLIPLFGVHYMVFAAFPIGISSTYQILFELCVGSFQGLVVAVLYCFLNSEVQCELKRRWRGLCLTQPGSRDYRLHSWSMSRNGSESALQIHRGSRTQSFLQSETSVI
Kind of data set: DiscoveRx in vitro potency, CHO-PO cells transiently transfected with rat VPAC 2 receptor DNA. The data set is classed as cell-based. Also on record: expressed in transfected cells; host or cells: CHO-PO, transient. The protocol: (§2) Also, the cells are washed twice. […] The stimuli are present for 30 minutes. Then, the assay buffer is gently removed.

For data set [4], the target named is T4, rat VPAC1 receptor (Rattus norvegicus, UniProt P30083).
T4 sequence (P30083 31-459): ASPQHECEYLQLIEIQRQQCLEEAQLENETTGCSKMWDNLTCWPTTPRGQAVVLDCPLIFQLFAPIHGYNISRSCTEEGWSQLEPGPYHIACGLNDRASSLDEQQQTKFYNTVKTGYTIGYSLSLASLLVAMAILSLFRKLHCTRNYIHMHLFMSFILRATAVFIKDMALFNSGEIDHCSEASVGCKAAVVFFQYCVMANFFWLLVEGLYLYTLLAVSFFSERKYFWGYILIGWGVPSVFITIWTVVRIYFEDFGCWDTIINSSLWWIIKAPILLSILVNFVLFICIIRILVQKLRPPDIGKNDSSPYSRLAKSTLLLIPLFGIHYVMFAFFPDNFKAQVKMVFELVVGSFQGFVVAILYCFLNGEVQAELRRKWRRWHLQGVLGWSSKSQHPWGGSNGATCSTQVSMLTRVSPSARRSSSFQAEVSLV
Kind of data set: DiscoveRx in vitro potency, CHO-PO cells transiently transfected with rat VPAC 1 receptor DNA. The data set is classed as cell-based. The arrangement: expressed in transfected cells; host or cells: CHO-PO, transient. The procedure:
as §2

Data set [5] addresses T5, human VPAC1 (Homo sapiens, UniProt P32241).
T5 sequence (P32241 31-457): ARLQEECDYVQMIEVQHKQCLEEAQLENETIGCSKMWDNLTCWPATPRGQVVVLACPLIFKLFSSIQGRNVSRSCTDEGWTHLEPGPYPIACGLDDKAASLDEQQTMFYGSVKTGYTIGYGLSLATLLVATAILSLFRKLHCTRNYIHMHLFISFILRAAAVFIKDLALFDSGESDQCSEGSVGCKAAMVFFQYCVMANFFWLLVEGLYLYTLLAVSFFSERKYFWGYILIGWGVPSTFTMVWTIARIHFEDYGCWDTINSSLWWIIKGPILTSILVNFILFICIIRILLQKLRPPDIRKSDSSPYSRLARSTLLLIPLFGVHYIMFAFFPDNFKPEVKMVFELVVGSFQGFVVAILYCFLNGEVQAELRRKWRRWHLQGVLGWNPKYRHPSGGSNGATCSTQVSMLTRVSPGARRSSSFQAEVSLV
Kind of data set: Filter binding assay, membranes of cells transiently transfected with human VPAC1, 125I-labeled VIP tracer (Table 2). The arrangement: expressed in transfected cells. Particulars: read-out: Human VPAC1 Receptor Binding. In outline: as §1

Data set [6] in a line: Rat serum stability studies (remaining active peptide by DiscoveRx cAMP on CHO-VPAC2 cells). The data set is classed as in vitro ADME. In outline:
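EC50 from a DiscoveRx cAMP read-out on CHO-VPAC2 cells indexes how much peptide stays active after 18 h in rat serum at 37° C without aprotinin, against an aprotinin-protected 4° C aliquot.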

Data set [7] concerns the target T1, human VPAC2. Kind of data set: Alpha screen cAMP in vitro potency, human VPAC2 receptor. The data set is classed as cell-based. Particulars: cAMP generation; single result from two analyses performed in a single run; read-out: Human VPAC2 Receptor: Alpha Screen EC50. In outline:
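Cells were detached with enzyme-free dissociation buffer, washed into stimulation buffer and used at 50,000 cells per data point. Stimuli and AlphaScreen acceptor beads were added for 60 minutes, then lysis buffer with donor beads for 60 to 120 minutes; the AlphaScreen signal reports intracellular cAMP.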

The conditions of data set [8]: rat, in vivo, iv, 10 ug/kg.
Procedure: (§3) An IVGTT with glucose is given immediately after T=0 to 6 animals per condition. Samples are taken at 0, 2, 4, 6, and 10 minutes after injection.
(§4) For cell handling, Plate 50,000 cells/well and keep in culture over night. Wash cell twice in PBS and add 50 μl/well stimulation medium consisting of PBS+1.2 MgCl2, 1.3 CaCl2, 2 glucose and 0.5 IBMX. Incubate 15 minutes and add 50 μl/well of the plasma samples (see layout below). Incubate 30 minutes, remove the supernatant and proceed as normal with the DiscoveRx assay. Prepare plates in duplicate. Protease and peptidase inhibitor are present in all plasma samples.
The nature of data set [9]: in vivo. Particulars: Wistar, rat, iv, 10 ug/kg.
Procedure: as §3, §4
The target in data set [10] is T1, human VPAC2. Kind of data set: DiscoveRx cAMP in vitro potency, CHO-S cell line stably expressing human VPAC2 receptor. The data set is classed as cell-based. Particulars: cAMP generation; mean of two independent runs. The protocol:
Also, the cells are washed twice. The cells are incubated in assay buffer plus IBMX for 15 minutes at room temperature. […] The stimuli are present for 30 minutes. Then, the assay buffer is gently removed. […] At day 3, the assay described above for the VPAC2 receptor cell line is performed.

Data set [11] deals with Normal Wistar rats. Kind of data set: Intravenous glucose tolerance test (IVGTT). The data set is classed as in vivo, rat. Particulars: IVGTT, insulin. The protocol:
Intravenous glucose tolerance test (IVGTT): Normal Wistar rats are fasted overnight and are anesthetized prior to the experiment. A blood sampling catheter is inserted into the rats. The compound is given in the jugular vein. Blood samples are taken from the carotid artery. A blood sample is drawn immediately prior to the injection of glucose along with the compound. After the initial blood sample, glucose mixed with compound is injected intravenously (i.v.). A glucose challenge of 0.5 g/kg body weight is given, injecting a total of 1.5 mL vehicle with glucose and agonist per kg body weight. The peptide concentration vary to produce the desired dose in μg/kg. Blood samples are drawn at 2, 4, 6 and 10 minutes after giving glucose. The control group of animals receives the same vehicle along with glucose, but with no compound added. In some instances, a 30 minute post-glucose blood sample is drawn. Aprotinin is added to the blood sample (250 kIU/ml blood). The serum is then analyzed for glucose and insulin using standard methodologies.
The assay uses a formulated and calibrated peptide stock in PBS. Normally, this stock is a prediluted 100 μM stock. However, a more concentrated stock with approximately 1 mg agonist per mL is used. The specific concentration is always known. Variability in the maximal response is mostly due to variability in the vehicle dose.

Where a SMILES comes first, the peptide text is derived from it. Where no end group is shown, it is not given here. [ ]: non-standard residue; d: D form. The star is where a group is joined. hArg = N=C(N)NCCCC[C@H](N)C(=O)O; Hexanoyl = CCCCCC(=O)*; Aib = CC(C)(N)C(=O)O Bounds are passed on as bounds.

In the case of “Hexanoyl-HSDAVFTDNYTRLR[Aib]QIAA[Aib]KYLQSIKNKRYGGPSSGAPPPS [Agonist P322]”, the results for the IC50 in [1], in data set [2] and in data set [5] were 0.4 nM, > 25000 nM and > 3000 nM, respectively. The EC50 (as a rule, the concentration giving half of the maximal effect) was found to be 0.04 nM in data set [3], 0.5 nM in data set [4] and 0.22 nM in data set [7]. In addition, in data set [6], the “Rat Serum Stability (Estimated purity in % after 72 hours)” value is 1.3%. In addition, the “Rat Serum Stability (estimated purity in % after 18 hours)” value in data set [6] is reported as 42.18%.

With “Hexanoyl-HSDAVFTDNYTRLR[Aib]QLAAK[Aib]YLQSIKNKRYGGPSSGAPPPS [Agonist P284]”, the IC50 in data set [1] was 0.38 nM; in [2] it was > 25000 nM; in [5], > 3000 nM. Also, the EC50 in [3] amounted to 0.07 nM; in [4], 0.44 nM; in [7] it was 0.18 nM. Moreover, the “Rat Serum Stability (estimated purity in % after 18 hours)” value in [6] is recorded as 27.89%.

As for “HSDAVFTDNYTRLLAKVAAKKYLQSIKNKRYGGPSSGAPPPS [Agonist P89]”, the figures for the IC50 in data set [1] and in data set [5] were 0.15 nM and 162 nM, respectively. The “Exposure (10 μg/kg, Vdist in μg/(nM * kg))” value in data set [8] was determined as 0.64 µg/nM/kg. The AUC(0-t) (as a rule, the area under the concentration-time curve up to a stated or last time point) in data set [9] is 0.523 nM·h. Moreover, the peak level in [9] (Cmax) was 5.45 nM. Besides, the half-life (as a rule, how long it takes for the measured level to halve) in data set [9] came to 1.32 min. Also, the values for the EC50 in data set [10], in [4] and in data set [7] were 0.7 nM, 0.02 nM and 1.23 nM, respectively. In data set [11] (0.5 μg/kg), the “% increase AUC: Dose = 0.5 μg/kg” value is given as 110%. Besides, the “% increase AUC: Dose = 10 μg/kg” value in [11] (10 μg/kg) is on record as 280%. Besides, the “Rat Serum Stability (Estimated purity in % after 72 hours)” value in data set [6] was <0.4%.

Take `CCCCCC(=O)N[C@@H](Cc1c[nH]cn1)C(=O)N[C@@H](CO)C(=O)N[C@@H](CC(=O)O)C(=O)N[C@@H](C)C(=O)N[C@H](C(=O)N[C@@H](Cc1ccccc1)C(=O)N[C@H](C(=O)N[C@@H](CC(=O)O)C(=O)N[C@@H](CC(N)=O)C(=O)N[C@@H](Cc1ccc(O)cc1)C(=O)N[C@H](C(=O)N[C@@H](CCCCNC(=N)N)C(=O)N[C@@H](CC(C)C)C(=O)N[C@@H](CCCNC(=N)N)C(=O)NC(C)(C)C(=O)N[C@@H](CCC(N)=O)C(=O)N[C@H](C(=O)N[C@@H](C)C(=O)N[C@@H](C)C(=O)NC(C)(C)C(=O)N[C@@H](CCCCN)C(=O)N[C@@H](Cc1ccc(O)cc1)C(=O)N[C@@H](CC(C)C)C(=O)N[C@@H](CCC(N)=O)C(=O)N[C@@H](CO)C(=O)N[C@H](C(=O)N[C@@H](CCCCNC(=N)N)C(=O)N[C@@H](CCCCNC(=N)N)C(=O)NCC(=O)NCC(=O)N1CCC[C@H]1C(=O)N[C@@H](CO)C(=O)N[C@@H](CO)C(=O)NCC(=O)N[C@@H](C)C(=O)N1CCC[C@H]1C(=O)N1CCC[C@H]1C(=O)N1CCC[C@H]1C(=O)N[C@@H](CS)C(N)=O)[C@@H](C)CC)C(C)C)[C@@H](C)O)[C@@H](C)O)C(C)C` [Agonist P333] (Hexanoyl-HSDAVFTDNYT[hArg]LR[Aib]QVAA[Aib]KYLQSI[hArg][hArg]GGPSSGAPPPC-NH2): the figures for the IC50 in [1] and in data set [5] were 9.71 nM and > 3000 nM, respectively. The EC50 in data set [3] worked out at 0.13 nM; in [4], 1.37 nM; in data set [7], 0.75 nM. In [6], the “Rat Serum Stability (Estimated purity in % after 72 hours)” value is given as 61.2%. The “Rat Serum Stability (estimated purity in % after 18 hours)” value in data set [6] was 40.90%.
